{"source": "patent US9723834B2", "about": "“Composition containing a pyripyropene insecticide and a base” (BASF SE, priority 2010, dated 2017)", "key": {"Tenebrio molitor L": {"test_system": "Tenebrio molitor L", "settings": "WO 2004/060065; cited from earlier work"}, "[1]": {"test_system": "larvae of Helicoverpa zea", "settings": "Applied and Environmental Microbiology (1995), 61(12), 4429-35; cited from earlier work"}, "[2]": {"test_system": "Plutella xylostella L larvae", "settings": "WO 2004/060065; cited from earlier work"}, "[3]": {"experiment": "Storage stability of emulsion concentrates at 65° C. (chemical assay before and after storage)", "format": "physicochemical", "settings": "emulsion concentrate with addition of Stabilizer A, storage at 65° C. up to 2 weeks", "experimental": "The present invention further relates to a use of the base for increasing the stability of the pesticide of formulae I or II. The stability of the pesticide may be analyzed storage for 14 days at 65° C. An increase of the stability of the pesticide may be identified by analyzing the chemical recovery after said storage.\nFinally, all samples of the emulsion concentrates were stored at 65° C. up to 2 weeks, and chemical assay was determined before and after storage. The chemical stability results as well as initial formulation pH (measured at 1% formulation dilution in water at room temperature) were listed in Table 1."}}, "data": [{"smiles": "CC(=O)OC[C@@]1(C)[C@@H]2C[C@H](OC(C)=O)[C@@]3(C)Oc4cc(-c5cccnc5)oc(=O)c4[C@H](O)[C@@H]3[C@@]2(C)CC[C@@H]1OC(C)=O", "note": "[Insecticide B, Pyripyropene A]", "values": [{"measurement": "insecticidal activity against Tenebrio molitor L", "setting": "Tenebrio molitor L", "value": "has insecticidal activity"}, {"measurement": "insecticidal activity against larvae of Helicoverpa zea", "setting": "[1]", "value": "has insecticidal activity"}, {"measurement": "insecticidal activity against Plutella xylostella L larvae", "setting": "[2]", "value": "has insecticidal activity"}]}, {"smiles": "C[C@]1(COC(=O)C2CC2)[C@@H]2C[C@H](O)[C@@]3(C)Oc4cc(-c5cccnc5)oc(=O)c4[C@H](O)[C@@H]3[C@@]2(C)CC[C@@H]1OC(=O)C1CC1", "note": "[Insecticide A]", "values": [{"measurement": "chemical stability of Insecticide A", "setting": "[3]", "value": "dramatically improved"}]}]}
